Measurements taken from patent US11208397B2, “Small molecule antagonists of sumo related modification of CRMP2 and uses thereof” (Arizona Board of Regents on Behalf of the University of …, priority 2017, dated 2021).
“Also recorded” adds a separate entry of the source. Where two headings read alike, the source gives them in different places.

How the values were obtained:
NaV1.7 = assay type: cell-based, rat
other NaV1.x channels = assay: Whole-cell patch clamp, other NaV1.x channels; assay type: cell-based
Penk mRNA = assay: Penk (proenkephalin) mRNA expression in cultured DRG neurons; assay type: cell-based; conditions: exposure 6 hr, cultured rat DRG neurons
TTX-S NaV1.7 currents = assay type: cell-based, human
hERG = hERG (Homo sapiens, UniProt Q12809); conditions: 20 μM, hEK293 cells; listed as ReN 194
hERG, sequence (Q12809 whole entry): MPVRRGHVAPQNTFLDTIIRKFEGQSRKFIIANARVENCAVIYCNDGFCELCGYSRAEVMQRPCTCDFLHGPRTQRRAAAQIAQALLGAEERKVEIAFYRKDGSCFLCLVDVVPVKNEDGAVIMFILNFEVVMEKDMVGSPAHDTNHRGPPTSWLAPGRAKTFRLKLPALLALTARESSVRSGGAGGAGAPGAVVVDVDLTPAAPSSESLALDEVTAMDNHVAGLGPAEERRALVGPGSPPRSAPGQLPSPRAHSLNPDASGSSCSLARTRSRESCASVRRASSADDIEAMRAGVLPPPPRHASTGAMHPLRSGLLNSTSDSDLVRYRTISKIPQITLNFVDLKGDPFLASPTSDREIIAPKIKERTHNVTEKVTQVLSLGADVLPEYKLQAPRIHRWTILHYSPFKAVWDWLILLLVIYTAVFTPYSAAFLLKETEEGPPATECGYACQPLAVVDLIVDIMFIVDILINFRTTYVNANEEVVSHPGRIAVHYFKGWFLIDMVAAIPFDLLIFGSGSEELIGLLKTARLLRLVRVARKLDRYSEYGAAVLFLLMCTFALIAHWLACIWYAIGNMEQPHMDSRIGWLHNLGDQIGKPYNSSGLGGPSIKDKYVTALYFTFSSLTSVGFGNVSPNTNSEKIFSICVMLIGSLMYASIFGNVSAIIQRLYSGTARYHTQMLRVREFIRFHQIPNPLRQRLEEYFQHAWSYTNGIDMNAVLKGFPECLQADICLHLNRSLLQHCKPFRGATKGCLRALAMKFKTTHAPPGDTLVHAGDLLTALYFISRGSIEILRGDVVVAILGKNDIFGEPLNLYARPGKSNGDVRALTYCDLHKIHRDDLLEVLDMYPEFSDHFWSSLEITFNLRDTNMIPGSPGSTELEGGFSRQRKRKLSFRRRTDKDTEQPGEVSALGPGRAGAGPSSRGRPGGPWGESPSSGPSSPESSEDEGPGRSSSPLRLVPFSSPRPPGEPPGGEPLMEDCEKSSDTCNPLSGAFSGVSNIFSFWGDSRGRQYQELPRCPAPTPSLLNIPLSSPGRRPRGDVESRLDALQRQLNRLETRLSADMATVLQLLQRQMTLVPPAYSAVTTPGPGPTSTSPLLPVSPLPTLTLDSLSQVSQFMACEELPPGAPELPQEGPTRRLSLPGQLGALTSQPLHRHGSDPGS

[1] = system: spared nerve injury (SNI) rats; assay: Spared nerve injury (SNI) model of neuropathic pain; assay type: in vivo, rat
Protocol: FIG. 4: AZ194 reduces spared nerve injury (SNI) induced nociceptive behaviors. Rats received spared nerve injury (SNI) on the left hind paw. […] Right panel: Area under the curve (AUC), using the trapezoid method, for PWT (summary for data shown in the time course on the left) are shown. *p<0.05, one-way analysis of variance with Dunnett's post hoc analysis. Error bars represent mean±s.e.m.
AZ194 was evaluated for efficacy in the spared nerve injury (SNI) model (see, e.g., Decosterd I, & Woolf C J (2000) Pain 87: 149-158) of neuropathic pain. […] Such experiments also determined the AUC to assess effects over the full experimental duration.
Under isoflurane anesthesia (5% induction, 2.5% maintenance in 2 L/min air), skin on the lateral surface of the left hind thigh was incised. The biceps femoris muscle was bluntly dissected to expose the three terminal branches of the sciatic nerve (see, e.g., Decosterd I, & Woolf C J (2000) Pain 87: 149-158). Briefly, the common peroneal and tibial branches were tightly ligated with 4-0 silk and axotomized 2.0 mm distal to the ligation. Sham animals underwent the same operation; however the nerves were exposed and not ligated. Closure of the incision was made in two layers. The muscle was sutured once with 5-0 absorbable suture and skin was auto-clipped. Animals were allowed to recover for 5-7 days before any testing.

Ubc9 = Ubc9 (Homo sapiens, UniProt P63279); assay: 1D 1H STD NMR binding to Ubc9
NaV1.7 channels = assay: Sodium currents of sensory neurons incubated with compound for indicated times (direct block test); assay type: cell-based; parameters: dose or concentration left out as unconfirmed; conditions: primary rat sensory neurons
Protocol: Primary rat sensory neurons were incubated for the indicated times with DMSO 0.1% or […] AZ194. Left: Bar graphs represent normalized peak sodium current density±s.e.m. from at least 14 cells per condition from 3 separate rats.*p<0.05, Kruskal-Wallis test. Middle: current voltage relationship of sodium currents from rat sensory neurons incubated for the indicated times with DMSO 0.1% or […] AZ194. Right: biophysical properties of inactivation were not altered by AZ194 at any of the time points versus control.
Primary rat sensory neurons were incubated for the indicated times with DMSO 0.1% or 5 mM AZ194.

CRMP2 = CRMP2 (Mus musculus, UniProt O08553); assay: 1D 1H STD NMR binding to CRMP2
Protocol: 1D ^1H STD NMR showing on-resonance spectrum for CRMP2 with probe AZ194. Asterisks correspond to protons. […] NMR was performed on an AVANCE III 400 Mhz specrometer equipped with a Bruker PABBO 400S1 probe and SampleJet carousel that can hold up to 96 NMR tubes. The on-resonance excitation was set at 0.81 ppm (to irradiate protein methyl groups) and off-resonance set to 30 ppm. A 15 ms spin-lock was used to suppress the protein signal, followed by the double PFG spin echo to remove residual water signal. Spectra processing and analysis were performed with Topspin3.1 and MestReNova 7.1.

CaV2.2 = target: T1, CaV2.2 (Rattus norvegicus, UniProt Q02294); assay: Peak CaV2.2 currents in DRGs; assay type: cell-based; conditions: 20 μM
T1 construct: endogenous in cells; host or cells: DRG neurons
T1 sequence (Q02294 whole entry): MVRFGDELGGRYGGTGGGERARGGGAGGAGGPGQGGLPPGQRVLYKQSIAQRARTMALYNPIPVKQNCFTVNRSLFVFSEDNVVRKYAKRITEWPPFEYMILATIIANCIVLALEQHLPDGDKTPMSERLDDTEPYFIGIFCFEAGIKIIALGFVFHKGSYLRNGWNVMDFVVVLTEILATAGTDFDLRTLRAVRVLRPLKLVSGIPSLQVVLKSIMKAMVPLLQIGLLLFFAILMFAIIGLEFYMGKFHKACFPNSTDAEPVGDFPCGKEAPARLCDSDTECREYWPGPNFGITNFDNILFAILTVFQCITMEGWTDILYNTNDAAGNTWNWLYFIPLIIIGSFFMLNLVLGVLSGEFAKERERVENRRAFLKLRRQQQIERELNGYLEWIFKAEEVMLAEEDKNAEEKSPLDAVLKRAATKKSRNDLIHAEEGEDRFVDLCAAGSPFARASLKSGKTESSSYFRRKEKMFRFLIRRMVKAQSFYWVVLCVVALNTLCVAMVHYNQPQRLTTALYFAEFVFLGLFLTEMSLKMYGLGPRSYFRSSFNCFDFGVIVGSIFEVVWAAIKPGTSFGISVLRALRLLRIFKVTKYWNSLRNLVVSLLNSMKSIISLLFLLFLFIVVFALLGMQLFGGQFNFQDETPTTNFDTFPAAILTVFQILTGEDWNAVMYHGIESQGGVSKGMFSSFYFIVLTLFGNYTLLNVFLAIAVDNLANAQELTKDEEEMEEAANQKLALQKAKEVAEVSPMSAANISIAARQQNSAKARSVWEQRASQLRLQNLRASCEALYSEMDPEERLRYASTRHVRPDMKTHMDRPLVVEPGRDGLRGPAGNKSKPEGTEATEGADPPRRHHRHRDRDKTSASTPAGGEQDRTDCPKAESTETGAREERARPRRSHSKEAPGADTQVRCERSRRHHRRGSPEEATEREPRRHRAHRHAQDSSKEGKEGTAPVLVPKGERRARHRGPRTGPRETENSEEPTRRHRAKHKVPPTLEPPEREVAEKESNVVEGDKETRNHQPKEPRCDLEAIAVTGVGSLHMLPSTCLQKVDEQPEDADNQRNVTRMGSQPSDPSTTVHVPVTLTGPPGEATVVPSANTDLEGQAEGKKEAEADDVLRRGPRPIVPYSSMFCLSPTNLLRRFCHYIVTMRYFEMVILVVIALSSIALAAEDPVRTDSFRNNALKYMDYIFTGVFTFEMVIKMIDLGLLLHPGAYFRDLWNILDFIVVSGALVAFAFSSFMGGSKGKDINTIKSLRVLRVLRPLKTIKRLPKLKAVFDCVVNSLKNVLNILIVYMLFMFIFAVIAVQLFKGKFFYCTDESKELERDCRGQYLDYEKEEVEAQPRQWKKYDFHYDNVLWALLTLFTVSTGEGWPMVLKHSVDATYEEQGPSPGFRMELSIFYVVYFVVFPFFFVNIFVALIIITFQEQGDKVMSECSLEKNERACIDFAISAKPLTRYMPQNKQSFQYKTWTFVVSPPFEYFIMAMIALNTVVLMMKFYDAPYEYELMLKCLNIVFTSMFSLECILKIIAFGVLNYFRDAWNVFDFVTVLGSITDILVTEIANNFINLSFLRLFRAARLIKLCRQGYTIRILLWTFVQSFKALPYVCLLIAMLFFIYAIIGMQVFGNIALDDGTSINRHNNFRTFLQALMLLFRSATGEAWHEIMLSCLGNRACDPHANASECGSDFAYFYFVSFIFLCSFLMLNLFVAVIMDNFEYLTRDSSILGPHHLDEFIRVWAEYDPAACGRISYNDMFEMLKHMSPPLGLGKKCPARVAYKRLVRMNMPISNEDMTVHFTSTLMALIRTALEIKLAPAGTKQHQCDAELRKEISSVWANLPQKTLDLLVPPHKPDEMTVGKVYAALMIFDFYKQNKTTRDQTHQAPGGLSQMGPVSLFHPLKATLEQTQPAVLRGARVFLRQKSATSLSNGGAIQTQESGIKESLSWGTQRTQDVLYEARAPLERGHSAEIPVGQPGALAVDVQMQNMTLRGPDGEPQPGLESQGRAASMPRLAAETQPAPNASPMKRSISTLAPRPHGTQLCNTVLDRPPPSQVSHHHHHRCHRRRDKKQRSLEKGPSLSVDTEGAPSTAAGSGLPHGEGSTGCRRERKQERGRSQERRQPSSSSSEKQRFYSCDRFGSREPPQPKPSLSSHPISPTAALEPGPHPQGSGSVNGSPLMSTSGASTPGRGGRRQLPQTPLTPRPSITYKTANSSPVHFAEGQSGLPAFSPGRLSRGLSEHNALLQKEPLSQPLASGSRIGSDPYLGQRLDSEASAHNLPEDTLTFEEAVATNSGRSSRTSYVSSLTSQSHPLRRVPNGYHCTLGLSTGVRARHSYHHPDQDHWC
T1 sequence (P54287 whole entry partner): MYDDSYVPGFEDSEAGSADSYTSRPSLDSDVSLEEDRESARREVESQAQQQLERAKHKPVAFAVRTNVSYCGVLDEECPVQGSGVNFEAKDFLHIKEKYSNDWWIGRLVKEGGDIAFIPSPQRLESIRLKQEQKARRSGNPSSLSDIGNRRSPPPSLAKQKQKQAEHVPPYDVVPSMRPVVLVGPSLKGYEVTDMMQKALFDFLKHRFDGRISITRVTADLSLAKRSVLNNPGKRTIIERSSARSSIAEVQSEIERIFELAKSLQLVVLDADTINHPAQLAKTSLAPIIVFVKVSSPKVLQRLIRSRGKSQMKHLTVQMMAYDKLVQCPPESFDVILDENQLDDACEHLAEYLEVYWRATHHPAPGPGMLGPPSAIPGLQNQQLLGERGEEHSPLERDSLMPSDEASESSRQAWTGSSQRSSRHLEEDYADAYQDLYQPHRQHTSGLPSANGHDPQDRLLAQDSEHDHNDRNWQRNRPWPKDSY
T1 sequence (P54290 25-1091 partner): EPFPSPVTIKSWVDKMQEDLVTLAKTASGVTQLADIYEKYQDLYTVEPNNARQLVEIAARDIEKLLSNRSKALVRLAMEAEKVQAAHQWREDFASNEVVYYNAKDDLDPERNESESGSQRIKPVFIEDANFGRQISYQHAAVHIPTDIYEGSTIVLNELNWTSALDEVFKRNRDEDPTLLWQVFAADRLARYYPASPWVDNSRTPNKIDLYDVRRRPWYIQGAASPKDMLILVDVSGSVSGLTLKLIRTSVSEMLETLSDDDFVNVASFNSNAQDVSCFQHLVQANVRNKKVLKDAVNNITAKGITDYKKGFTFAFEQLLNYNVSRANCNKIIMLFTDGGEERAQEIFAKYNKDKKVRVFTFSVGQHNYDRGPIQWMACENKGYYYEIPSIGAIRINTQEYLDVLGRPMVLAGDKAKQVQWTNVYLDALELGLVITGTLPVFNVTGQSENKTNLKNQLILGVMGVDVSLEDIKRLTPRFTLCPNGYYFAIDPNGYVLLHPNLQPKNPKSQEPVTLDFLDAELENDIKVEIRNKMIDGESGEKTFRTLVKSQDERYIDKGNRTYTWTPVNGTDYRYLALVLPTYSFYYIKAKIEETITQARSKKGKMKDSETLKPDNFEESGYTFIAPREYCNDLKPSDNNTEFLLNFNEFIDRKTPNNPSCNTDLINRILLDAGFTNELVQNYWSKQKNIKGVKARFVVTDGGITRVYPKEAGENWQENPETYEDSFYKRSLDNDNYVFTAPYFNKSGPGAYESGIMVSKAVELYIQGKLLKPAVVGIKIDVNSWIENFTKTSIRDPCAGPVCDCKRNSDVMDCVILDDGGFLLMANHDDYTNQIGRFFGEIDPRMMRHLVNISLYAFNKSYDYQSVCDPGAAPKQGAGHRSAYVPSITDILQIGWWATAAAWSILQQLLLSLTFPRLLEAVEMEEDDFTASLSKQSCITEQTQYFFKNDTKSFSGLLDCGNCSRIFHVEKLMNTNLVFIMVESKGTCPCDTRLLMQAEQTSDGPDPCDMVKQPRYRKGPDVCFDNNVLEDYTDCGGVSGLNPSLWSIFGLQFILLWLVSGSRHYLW

NaV channels = assay: Frequency (use)-dependent block of sodium current in DRG neurons; assay type: cell-based; conditions: 5 μM, thirty test pulses at 10 Hz, listed as ReN 206
Protocol: Control DRG neurons were treated with 0.03% DMSO (squares). Thirty, identical test pulses were applied at 10 Hz. The difference in available current was calculated by dividing the peak current at any given pulse (pulseN) by the peak current in response to the initial pulse (pulsei). Data are from 5-6 cells per condition.
The ability to block Na^+ currents in an activity- or use-dependent manner is a useful property for drugs since it allows for preferential decreases in sodium channel availability during high—(i.e., hyperexcitable ‘pain’ neurons) but not low-frequency firing.

SMILES	inhibition of NaV1.7 (concentration-response curve) (NaV1.7)	effect on other NaV1.x channels (other NaV1.x channels)	effect on other NaV1.x channels (other NaV1.x channels; highest concentration of 20 μM)	Penk mRNA (proenkephalin), normalized to L27 ribosomal RNA (Penk mRNA)	reduction of TTX-S NaV1.7 currents (TTX-S NaV1.7 currents) [%]	effect on hERG K+ currents (hERG)	paw withdrawal thresholds (PWTs) ([1]; intrathecal injection 0.5 μg/5 μl)	area under the curve (AUC) for PWT ([1]; spinal administration, full experimental duration)	binding to Ubc9 (STD NMR) (Ubc9)	biophysical properties of inactivation (NaV1.7 channels; any time point versus control)	direct block of NaV1.7 channels (normalized peak sodium current density) (NaV1.7 channels; indicated incubation times)	binding to CRMP2 (STD NMR) (CRMP2)	effect on peak CaV2.2 currents (CaV2.2)	effect on peak CaV2.2 currents (CaV2.2; listed as ReN 194)	frequency (use)-dependent decrease in current amplitude (NaV channels)
COc1cc(C(=O)N2CCC(c3nc4ccccc4n3Cc3cccc(F)c3)CC2)ccc1OCc1cccc(F)c1 [AZ194, (4-(1-(3-fluorobenzyl)-1H-benzo[d]imidazol-2-yl)piperidin-1-yl)(4-((3-fluorobenzyl)oxy)-3-methoxyphenyl)methanone]	nanomolar potency	not affected	no inhibition	upregulates; also recorded: increased	~66	did not affect	significantly increased; also recorded: significantly reversed	reversal of mechanical allodynia	No binding was observed	not altered	does not directly block	binds	no inhibition	did not affect	
Fc1ccc(Oc2ccc(CN3CCC(c4nc5ccccc5[nH]4)CC3)cc2)cc1 [AZ206, 2-(1-(4-(4-fluorophenoxy)benzyl)piperidin-4-yl)-1H-benzo[d]imidazole]															use-dependent inhibitor; also recorded: decrease in current amplitude
COc1cc(C(=O)N2CCC(c3nc4ccccc4n3Cc3cccc(F)c3)CC2)ccc1OCc1cccc(F)c1 [drawing 20]				upregulation											
